Structures can show the parent of a compound that is named as a salt. Where two headings read alike, the source gives them in different places.
Key:
[1] = test system: 11778(G>A) mutant cybrids; assay: Effect of rotenone on complex I-driven ATP synthesis in mutant vs control osteosarcoma cybrids; format: cell-based
Excerpt: (§1) The data is presented as average+standard deviation from three independent experiments and single asterisk signifies the statistical significance (P<0.05) between the control and LHON mutant cells.
Among the various LHON-associated mutations, 11778(G>A) mutation encoding ND4 subunit of mitochondrial complex I is the most prevalent and the most severe (Oostra et al., J Med Genet, 1994, 31, 280-286). It has been previously hypothesized that some external stress factors are responsible for the precipitation of vision loss in LHON (Chalmers et al., Biochimica et Biophysica Acta, 1999, 1410, 147-158). To understand the 11778(G>A) mutant mitochondrial functionality under stress, we evaluated the effect of a complex I inhibitor on complex I-driven ATP synthesis using an osteosarcoma cybrid model (FIG. 11A).
Measurement of complex I-driven ATP synthesis: The cybrid cells were seeded at 50000 cells/well in 100 μL of medium, in a white, opaque-bottom, 96-well plate coated with poly-D-lysine (Corning) and was incubated at 37° C. overnight. […] After 2 hr incubation at 37° C., the medium from the plates were aspirated using an automatic plate washer (Biotek) and complex I-driven ATP synthesis was measured following the protocol of Yoshida and Fujikawa (Fujikawa et al., Biochemical and Biophysical Research Communications, 2010, 401, 538-543). […]

[2] = test system: control osteosarcoma cells and LHON mutant (11778 G>A) cells; assay: Validation of complex I-driven ATP synthesis assay with substrates and inhibitors of mitochondrial complexes; format: cell-based; details: for mitochondrial ATP synthesis: inhibitor at 1 μM, malate/pyruvate substrates, permeabilized cells
Excerpt: The data is presented as ATP synthesis rate+standard deviation from one representative experiment.

[3] = test system: 11778 (G>A) mutant lymphoblasts; assay: Effect of rotenone on complex I-driven ATP synthesis in lymphoblasts; format: cell-based; details: gender-matched lymphoblasts
Method: as §1
For the lymphoblasts, drug-treated cells were centrifuged and resuspended at a concentration of 2×10^6 cells/mL, in the permeabilization buffer containing activated streptolysin O (Sigma). After 10 min incubation at 4° C., the cells were centrifuged and resuspended in transfer buffer at the same concentration. The cells were then incubated at 37° C. for 10 min followed by centrifugation and resuspension in buffer A containing malate (5 mM, Sigma), sodium pyruvate (5 mM, Sigma) and high purity ADP (200 μM, Apollo Scientific). Subsequently, 50 μL of buffer A containing 100,000 cells were plated in each wells of a 96-well plate. After 20 min of incubation at the room temperature the complex I-driven ATP synthesis was measured by using ATP Bioluminescence Assay Kit CLS II (Roche) following manufacturer's instruction.

[4] = test system: inflammatory genes in retinas of Ndufs4 KO mice; assay: qRT-PCR of inflammatory genes in retinas after rapamycin treatment (Example 1); format: in vivo, mouse; details: rapamycin 8 mg/kg intraperitoneally for 9 days
Method: FIG. 6 depicts an experimental reversal of inflammatory gene induction by rapamycin. White bars, a mean increase in transcript level of 16/16 inflammatory markers was observed by qRT-PCR in retinas of Ndufs4 KO mice compared to wild type. […] Statistical significance determined by student's t test. * P<0.05, ** P<0.01.
Rapamycin was dissolved in DMSO to 100 mg/mL. This was diluted in 5% PEG-400/5% Tween-20 (vehicle) to a concentration of 0.6 mg/mL, sterile filtered, and stored at −80 for long-term storage. Rapamycin treated mice were injected with 132 microliters/10 g body weight for a final dose of 8.0 mg/kg (Johnson et al., Science, 2013, 342, 1524-1528). Vehicle mice were injected with equal volume of PBS and DMSO lacking rapamycin. […]
The change in PCR products as the reaction proceeded was monitored by SYBR green dye (Invitrogen, Grand Island, N.Y.). […] Quantification cycle (Cq) values obtained by the Lightcycler were analyzed by normalizing the values to the reference genes and delta Cq values were calculated to determine relative gene expression values compared to wild type. Delta delta Cq was also calculated to determine the fold change difference between Ndufs4 knockout and wild type. Significance, p<0.05 was determined using two sample independent student's t-test statistics with equal sample size and assuming equal variance.

LHON cybrids (11778 G>A) = assay: Complex I-driven ATP synthesis in rotenone-inhibited LHON mutant cybrids (luciferase-based, high-throughput screen and concentration-response); format: cell-based
[5] = test system: innate immune/inflammatory response in Ndufs4 KO retina; assay: Retinal gene expression of innate immune and inflammatory markers after drug treatment (Example 3); format: in vivo, mouse; details: Ndufs4 KO mice; doses as in drug formulation
Method: The graphs represent RNA expression of B2m (FIG. 21A), Tlr2 (FIG. 21B), Cxc110 (FIG. 21C), Cc15 (FIG. 21D), and Aif1 (FIG. 21E) in the wild type and Ndufs4 knockout retina. Bars represent mean delta Ct values normalized to housekeeping genes, Actb and Mapk1. Error bars represent standard error of the mean. Statistical significance was determined by two-tailed student's t test. * P<0.05, ** P<0.01, **** P<0.0001.
(§2) Wild type and Ndufs4 knockout mice were placed in one of five groups: vehicle, papaverine (20 mg/kg), zolpidem (20 mg/kg), rapamycin (8 mg/kg), or idebenone (200 mg/kg). For papaverine, zolpidem, and rapamycin, drug was dissolved in DMSO which was diluted in 5% PEG-400/5% Tween-20 in PBS. Vehicle contained all components except for the drug. The solution was then sterile filtered and intraperitoneal injections were performed using a 30 gauge needle. Idebenone was administered as a jelly and consumed orally.
We have previously shown that inflammatory gene expression of Aif1, Tlr2, B2m, Cc15, and Cxc110 are all elevated in the Ndufs4 KO mouse compared to wild type by more than 3-fold, indicating an inflammatory pathomechanism of mitochondrial blindness (Yu et al., Proc Natl Acad Sci USA, 2015, 112(42): E5689-98). […] Papaverine, zolpidem, rapamycin, and idebenone were administered to Ndufs4 KO mice to determine whether their protection of vision (FIG. 20) was through an anti-inflammatory mechanism of action. […] Thus, papaverine, zolpidem, and rapamycin appear to protect mitochondrial loss of vision through an antiinflammatory mechanism.

Ndufs4 knockout mice = assay: Visual cliff test; format: in vivo, mouse; details: P21-P35 treatment; papaverine 20 mg/kg, zolpidem 20 mg/kg, rapamycin 8 mg/kg i.p.; idebenone 200 mg/kg oral
[6] = test system: 11778 (G>A) mutant cybrid; assay: Mitochondrial copy number (MT-TL1/B2M ratio), mutant cybrids; format: cell-based; details: LHON mutant cells [11778(G>A)]; 24 hrs exposure
Method: (§3) FIGS. 14A-14C illustrate the effect of drugs on the mitochondrial copy number. Difference of mitochondrial copy number between 11778 (G>A) mutant and control cybrids (FIG. 14A). Effect of zolpidem and papaverine on the control healthy cybrid mitochondrial copy number (FIG. 14B) and 11778 (G>A) mutant cybrid mitochondrial copy number (FIG. 14C). Cells were treated with either vehicle or one of the drugs at specified concentration for 24 h. The cells were harvested after 24 h and the ratio between MT-TL1 and B2M was determined. Data is presented as average relative fold change±std. deviation from three independent observations. Statistical significance (p<0.05) is denoted by ‘*’ and was determined by one way ANOVA and Dunett's post hoc test.

control healthy cybrid = assay: Mitochondrial copy number (MT-TL1/B2M ratio), control cybrids; format: cell-based; details: control cells; 24 hrs exposure
Method: as §3

Ndufs4 KO mice [7] = assay: Microglia activation (Iba1 staining of whole mount retinas); format: in vivo, mouse; details: two weeks (P21-P35) intraperitoneal treatment
Ndufs4 KO mice [8] = assay: Starburst amacrine cell count (ChAT staining of whole retina); format: in vivo, mouse; details: two weeks (P21-P35) intraperitoneal injections
Method: 20× confocal images of whole retina stained with ChAT (marker of starburst amacrine cells) from wild type (FIG. 22A), Ndusf4 KO vehicle treated (FIG. 22B), Ndufs4 KO papaverine treated (FIG. 22C), Ndufs4 KO zolpidem treated (FIG. 22D), and Ndufs4 KO rapamycin treated (FIG. 22E) are shown.
as §2

[9] = 20 h; read-out: Fold change of ATP synthesis rate greater than 2x Median Absolution Deviation

## C=C(C)[C@H]1Cc2c(ccc3c2O[C@@H]2COc4cc(OC)c(OC)cc4[C@@H]2C3=O)O1 [rotenone]
[1]; 3 most common LHON mutations in cybrids
  rotenone-dependent ATP synthesis defect across 11778, 3460 and 14484 mutant cybrids: directly in proportion to the severity of the disease in humans
[1]; rotenone 0.001 μM-1 μM, 24 h, mutant clones HCT22, HFF3 vs control HGA2, H1959
  sensitivity of complex I-driven ATP synthesis to rotenone: highly sensitive to rotenone when compared to control
[2]
  mitochondrial ATP synthesis: inhibited the mitochondrial ATP synthesis
[3]
  differential effect of rotenone on mutant vs control ATP synthesis: clearly reproducible

## CC[C@H]1/C=C/C=C/C[C@@H](C)[C@H](O)[C@@](C)(O)C(=O)[C@@H](C)[C@H](O)[C@@H](C)C(=O)[C@@H](C)[C@H](O)[C@@H](C)/C=C/C(=O)O[C@@H]2[C@H](C)[C@H](CC1)O[C@]1(CC[C@H](C)[C@H](C[C@@H](C)O)O1)[C@H]2C [oligomycin]
[2]
  mitochondrial ATP synthesis: inhibited the mitochondrial ATP synthesis

## O=C(O)CCC(=O)O [succinate]
[2]; succinate 5 mM vs rotenone, ascorbate/TMPD vs antimycin
  reversal of inhibitor-induced inhibition of ATP synthesis: reversed

## CO[C@H]1C[C@@H]2CC[C@@H](C)[C@@](O)(O2)C(=O)C(=O)N2CCCC[C@H]2C(=O)O[C@H]([C@H](C)C[C@@H]2CC[C@@H](O)[C@H](OC)C2)CC(=O)[C@H](C)/C=C(\C)[C@@H](O)[C@@H](OC)C(=O)[C@H](C)C[C@H](C)/C=C/C=C/C=C/1C [rapamycin]
[4]
  transcripts with inhibition of mean amplitude of induction of inflammatory genes: 16/16

## Cn1cnc([N+](=O)[O-])c1Sc1ncnc2nc[nH]c12 [Azathioprine, azathioprine]
LHON cybrids (11778 G>A); [9]
  fold induction at 10 µM: 1.4

## COc1ccc(OC)c(C(O)C(C)N)c1 (stereo not shown) [Methoxamine HCl, 2-amino-1-(2,5-dimethoxyphenyl)-1-propanol]
LHON cybrids (11778 G>A); [9]
  fold induction at 10 µM: 1.4

## COC1=C(OC)C(=O)C(CCCCCCCCCCO)=C(C)C1=O [idebenone]
[5]
  innate immune/inflammatory gene expression (B2m, Tlr2, Cxcl10, Ccl5, Aif1) in retina: significantly inhibited a portion of the innate immune/inflammatory response
Ndufs4 knockout mice
  visual function (median # edge detections): not significant

## antimycin A
[2]
  mitochondrial ATP synthesis: inhibited the mitochondrial ATP synthesis

## C1N2CN3CN1CN(C2)C3 [Methenamine, methenamine]
LHON cybrids (11778 G>A); [9]
  fold induction at 10 µM: 1.3

## CN1CCc2cc3c(cc2[C@H]1[C@@H]1OC(=O)c2c1ccc1c2OCO1)OCO3 [bicuculine, bicuculline]
LHON cybrids (11778 G>A); zolpidem 30 μM and bicuculline 30 μM for 22 h, then rotenone 0.03 μM 2 h
  effect of GABAA antagonist on reversal of rotenone inhibition by zolpidem: no significant effect

## O=c1[nH]cc(F)c(=O)[nH]1 [Fluorouracil, 5-fluorouracil]
LHON cybrids (11778 G>A); [9]
  fold induction at 10 µM: 1.1

## O=S(=O)(NCCNC/C=C/c1ccc(Br)cc1)c1cccc2cnccc12 [H89]
LHON cybrids (11778 G>A); H89 3 μM with zolpidem 30 μM
  effect of H89 on rotenone rescue effect of zolpidem: reversed the rotenone rescue effect of zolpidem
LHON cybrids (11778 G>A); papaverine 30 μM and H89 3 μM for 22 h, then rotenone 0.03 μM 2 h
  effect of PKA inhibitor on papaverine's protection from rotenone: did not decrease papaverine's ability to protect from rotenone

## Cc1ccc(-c2nc3ccc(C)cn3c2CC(=O)N(C)C)cc1 [zolpidem]
LHON cybrids (11778 G>A); 20 h, read-out: Fold change of ATP synthesis rate greater than 2x Median Absolution Deviation
  fold induction at 10 µM: 1.4
LHON cybrids (11778 G>A); different concentrations of drug 22 h, then rotenone 0.03 μM 2 h
  reversal of rotenone sensitivity of complex I-driven ATP synthesis: dose-dependently reversed the rotenone-sensitivity
LHON cybrids (11778 G>A); zolpidem 30 μM pre-treatment; rotenone 0.03 μM
  ATP synthesis rate relative to vehicle-treated cells after rotenone: 2 times
LHON cybrids (11778 G>A); zolpidem 3, 10, and 30 μM pre-treatment; rotenone 0.03 μM
  ATP synthesis rate compared to vehicle pre-treated cells: significantly higher ATP synthesis rate
[5]
  innate immune/inflammatory gene expression (B2m, Tlr2, Cxcl10, Ccl5, Aif1) in retina: significantly inhibited a portion of the innate immune/inflammatory response
[6]
  ratio of mtDNA/nDNA: did not significantly change the ratio of mtDNA/nDNA
Control healthy cybrid
  ratio of mtDNA/nDNA: did not significantly change the ratio of mtDNA/nDNA
Ndufs4 knockout mice
  visual function (median # edge detections): visual function was preserved
Ndufs4 KO mice [7]
  microglia activation: decrease in microglia activation
Ndufs4 KO mice [8]
  starburst amacrine cell loss: significant protection of startburst amacrine cells from apoptosis

## CN(Cc1cnc2nc(N)nc(N)c2n1)c1ccc(C(=O)N[C@@H](CCC(=O)O)C(=O)O)cc1 [Methotrexate, methotrexate]
LHON cybrids (11778 G>A); [9]
  fold induction at 10 µM: 1.2
